Patent US9981988B2, “Polymorphic forms and co-crystals of a c-Met inhibitor” (AMGEN, INC., priority 2014, dated 2018)

Test: Solubility in organic solvents
Assay type: physicochemical
Conditions: 20 °C, organic solvent or mixture, thermodynamic from solid; about 20 to about 25° C.; solvent not given
Experimental: In all studies, excess solid of the compound was allowed to equilibrate for at least 12 hours while stirring.

solubility: ~164 mg/mL
SMILES: COCCOc1cnc2ccn([C@H](C)c3nnc4c(F)cc(-c5cnn(C)c5)cn34)c(=O)c2c1 [DMSO hemisolvate form of Compound M, 6-{(1R)-1-[8-fluoro-6-(1-methyl-1H-pyrazol-4-yl)[1,2,4]triazolo[4,3-a]pyridin-3-yl]ethyl}-3-(2-methoxyethoxy)-1,6-naphthyridin-5(6H)-one]
